# Test system: cholesterol absorption from the intestine
# Test: In Vivo Assay of Hypolipidemic Agents using the Rat Cholesterol Absorption Model
# Design: species or system Female Sprague-Dawley rats
# Conditions: po, Table 1, footnote 1, perorally, 10 mg/kg, 3H levels in serum three hours after 3H-cholesterol
# In short: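 Fasted female Sprague-Dawley rats (150–250 g, 4–6/group) received compound orally in olive oil or vehicle. Thirty minutes later they were given 3–5 µCi ^3H-cholesterol orally in olive oil, and serum ^3H was counted at 3 h. Percent inhibition versus vehicle control is at a fixed dose; ED50 is the dose giving half-maximal effect on serum ^3H.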
row,Compound,inhibition at 10 mg/kg [%]
1,"O=C1[C@H](CC[C@H](O)c2ccc(F)cc2)[C@@H](c2ccc(-c3ccccc3)cc2)N1c1ccc(F)cc1 [Example 3, (3R,4S)-4-Biphenyl-4-yl-1-(4-fluorophenyl)-3-[(3S)-3-(4-fluorophenyl)-3-hydroxypropyl]azetidin-2-one]",15

# Same assay, conditions: po, Table 1, perorally, 1 mg/kg, 3H levels in serum three hours after 3H-cholesterol, versus vehicle only control
row,Compound,inhibition at 1 mg/kg [%]
1,"COc1ccc(-c2ccc([C@@H]3[C@@H](CC[C@H](O)c4ccc(F)cc4)C(=O)N3c3ccc(F)cc3)cc2)c(OC)c1OC [Example 96, (3R,4S)-1-(4-fluorophenyl)-3-[(3S)-3-(4-fluorophenyl)-3-hydroxypropyl]-4-(2',3',4'-trimethoxybiphenyl-4-yl)azetidin-2-one]",69
2,"CCCCOc1cccc(-c2ccc([C@@H]3[C@@H](CC[C@H](O)c4ccc(F)cc4)C(=O)N3c3ccc(F)cc3)cc2)c1 [Example 109, (3R,4S)-4-(3'-butoxybiphenyl-4-yl)-1-(4-fluorophenyl)-3-[(3S)-3-(4-fluorophenyl)-3-hydroxypropyl]azetidin-2-one]",52
3,"COc1ccc(-c2ccc([C@@H]3[C@@H](CC[C@H](O)c4ccc(F)cc4)C(=O)N3c3ccc(F)cc3)cc2)c(OC)c1 [Example 97, (3R,4S)-4-(2',4'-dimethoxybiphenyl-4-yl)-1-(4-fluorophenyl)-3-[(3S)-3-(4-fluorophenyl)-3-hydroxypropyl]azetidin-2-one]",40
4,"O=C1[C@H](CC[C@H](O)c2ccc(F)cc2)[C@@H](c2ccc(-c3cc(O)cc(O)c3)cc2)N1c1ccc(F)cc1 [Example 114, (3R,4S)-4-(3',5'-dihydroxybiphenyl-4-yl)-1-(4-fluorophenyl)-3-[(3S)-3-(4-fluorophenyl)-3-hydroxypropyl]azetidin-2-one]",72
5,"O=C1[C@H](CC[C@H](O)c2ccc(F)cc2)[C@@H](c2ccc(-c3cccc(O[C@H]4O[C@@H](CO)[C@H](O)[C@@H](O)[C@@H]4O)c3)cc2)N1c1ccc(F)cc1 [Example 95, 4'-{(2S,3R)-1-(4-fluorophenyl)-3-[(3S)-3-(4-fluorophenyl)-3-hydroxypropyl]-4-oxoazetidin-2-yl}biphenyl-3-yl β-L-glucopyranoside]",57
6,"O=C1[C@H](CC[C@H](O)c2ccc(F)cc2)[C@@H](c2ccc(-c3cccc(C(F)(F)F)c3)cc2)N1c1ccc(F)cc1 [Example 92, (3R,4S)-1-(4-fluorophenyl)-3-[(3S)-3-(4-fluorophenyl)-3-hydroxypropyl]-4-[3'-(trifluoromethyl)biphenyl-4-yl]azetidin-2-one]",17
7,"COc1cc(-c2ccc([C@@H]3[C@@H](CC[C@H](O)c4ccc(F)cc4)C(=O)N3c3ccc(F)cc3)cc2)cc(OC)c1OC [Example 9, (3R,4S)-1-(4-fluorophenyl)-3-[(3S)-3-(4-fluorophenyl)-3-hydroxypropyl]-4-(3',4',5'-trimethoxybiphenyl-4-yl)azetidin-2-one]",40
8,"O=C1[C@H](CC[C@H](O)c2ccc(F)cc2)[C@@H](c2ccc(-c3cccc(OC[C@H]4OC(O)[C@H](O)[C@@H](O)[C@@H]4O)c3)cc2)N1c1ccc(F)cc1 (stereo partly drawn) [Example 76, 6-O-(4'-{(2S,3R)-1-(4-Fluorophenyl)-3-[(3S)-3-(4-fluorophenyl)-3-hydroxypropyl]-4-oxoazetidin-2-yl}biphenyl-3-yl)-D-glucopyranose]",56

# Same assay, conditions: po, Table 2, perorally, 1 mg/kg, 3H levels in serum three hours after 3H-cholesterol, versus vehicle only control
row,Compound,inhibition at 1 mg/kg [%]
1,"O=C1[C@H](CC[C@H](O)c2ccc(F)cc2)[C@@H](c2ccc(-c3cccc(O)c3)cc2)N1c1ccc(-c2ccccc2)cc1 [Example 124, (3R,4S)-1-biphenyl-4-yl-3-[(3S)-3-(4-fluorophenyl)-3-hydroxypropyl]-4-(3'-hydroxybiphenyl-4-yl)azetidin-2-one]",48
2,"O=C1[C@H](CC[C@H](O)c2ccc(F)cc2)[C@@H](c2cccc(-c3cccc(O)c3)c2)N1c1ccc(F)cc1 [Example 44, (3R,4S)-1-(4-fluorophenyl)-3-[(3S)-3-(4-fluorophenyl)-3-hydroxypropyl]-4-(3'-hydroxybiphenyl-3-yl)azetidin-2-one]",24

# — patent EP1832576A1, “4-Biarylyl-1-phenolyzetidin-2-ones” (Microbia Inc., priority 2003, dated 2005)
